Results on 5 compounds are retold here after US11406103B2, “Sanitizing rinse based on quat-anionic surfactant synergy” (Ecolab USA Inc., priority 2016, dated 2022).

The nature of one data set: Glewwe foam test. Format: physicochemical. As for the experimental part: A test was run to determine the foam profiles of the five quat solutions of Example 1. A Glewwe foam apparatus in combination with the following procedure was used for this test. First, each quat was prepared and gently poured into a Glewwe cylinder. Samples tested contained a concentration of 50 ppm of the indicated antimicrobial quats. A ruler was attached to the side of the cylinder, and the solution was level with the bottom of the ruler. The pump was turned on. Foam height was estimated by reading the average level of foaming according to the ruler. Foam height readings were taken versus time with a stopwatch or timer. The pump was turned off and height of the foam was recorded at various times. […] The foam level was read after 15 seconds of agitation and again after 60 seconds of agitation for a given amount of time. A stable foam is defined when the foam remains for several minutes after agitation is stopped. A partially stable foam breaks slowly within a minute. An unstable foam breaks rapidly in less than 15 seconds. A desirable rinse should have unstable foam to no foam. In contrast, antimicrobial hand soap should have stable foam.
The results from the foaming test are shown in FIG. 2, and described in Table 3 below.
Another foam evaluation test was run using the procedure described in Example 2.
The inclusion of additional additives (defoamer and solubilizer/booster, such as Emulsogen) to the Quat-Anionic surfactant pairs were also analyzed, provided in Table 5 below (5A-5B), using the procedure described in Example 2.

Data set [1] is described as follows: Dynamic surface tension (SITA science line t60, bubble pressure). Format: physicochemical. The procedure:
The SITA science line t60 measures the dynamic surface tension of liquids up to the semi-static range. Air bubbles are generated from a capillary with known radius. The bubble pressure is measured as a function of bubble life time, which can be correlated to the surface tension according to the Young-Laplace equation. […] The dynamic surface tension behavior of surfactants is particularly important in applications where a quick response of surfactant is required, for example, in short rinse cycles of automated dishwashing.
The SITA science line t60 was calibrated with DI water. […] Following calibration, the SITA was programmed to take readings at the desired time intervals (i.e., 0.3, 1.6, 3.0, 9.1 seconds).
10-15 mL were transferred into 20 mL vials and immersed in a water bath to 25° C.±2° C. The samples were equilibrated for 10-15 minutes. The samples were individually tested. After each sample was tested the SITA's cleaning procedure was run, then the surface tension of DI water was checked to ensure the SITA was adequately clean. If the DI water measurements were not within 72.0±1.0 mN/m, then the cleaning procedure was run again. […]

Data set [2] deals with Escherichia coli ATCC 11229. Briefly: Low temperature warewash sanitizing rinse test. The data set is classed as cell-based. The settings on record: anionic surfactant paired with quaternary ammonium compound, in this study. As for the experimental part:
The sanitizing efficiency was determined for the experimental formulas of Table 8A-8B using the following procedure: • 1.) Set up low temperature ware wash machine to our specific settings (see 7-cycle procedure) • a. Set water Temperature (120° F.) • b. Check water Hardness (4-6 gpg) • c. Set water flow rate • d. Hand dose in chemistry, no need to set up (50 ppm Quat, 50 ppm Bleach) • e. Watch these variables throughout tests • 2.) Have 10 processed Libby glasses for each tested chemistry run • a. 5 will be unwashed controls • b. 5 will be washed to detect kill • 3.) Have enough sterile tubs to hold glasses—supplied by Micro • a. Max 20 glasses per tub, or 2 runs • 4.) Have enough swabs to collect specimen—supplied by Micro • a. Need 2 per run or 1 swab per 5 glasses • 5.) Have 1 buffer solution tube per 5 glasses, 2 per run • 6.) Have Micro bring in an E. coli suspension • 7.) Get 10 glasses ready in easy reach • 8.) Fill one glass, an inch from the top, with E. coli suspension • a. Start timer for 10 minutes at this point • 9.) Pour E. coli Suspension from first glass into second glass, from second glass into third, and so on • 10.) Dip the top inch of each soiled glass into E. coli suspension to coat rim • 11.) Set glasses upside down in a sterile tub and let dry for 10 minutes • 12.) Swab 5 of the 10 glasses as your test control group • a. […]

Entries after “also recorded” stand apart in the source; their conditions may differ. Where two headings read alike, the source gives them in different places.

Take “Alkyl Benzyl ammonium chloride [Uniquat QAC-50]”: the “Foaming Profile” value in “Glewwe foam test” (ranking 1-5, Glewwe Foam Test, 50 ppm Quat, 6psi, 140° F.) is 1. Further, in data set [1] (ranking 1-5 among five quats, 100 ppm quat, 75° F.), the “Dynamic Surface Activity” value was 3.

Turning to “Didecyl (C10) dimethyl ammonium chloride [Bardac 2250]”, in “Glewwe foam test”, the “Foaming Profile” value is on record as 3. Further, in data set [1], the “Dynamic Surface Activity” value amounted to 1.

As to `CCCCCCCC(=O)O` [Octanoic acid], the “antimicrobial synergy with quat, in words” value in data set [2] is “best antimicrobial synergy”.

For the compound `CCCCCCCCCC(=O)O` [Decanoic acid], the “antimicrobial synergy with quat, in words” value in data set [2] was “best antimicrobial synergy”.

As to “Dioctyl (C8) dimethyl ammonium chloride [Bardac LF80]”, in the data set “Glewwe foam test”, the “Foaming Profile” value is on record as 5 and the “foam profile, in words” value is on record as “lowest foam profile”. In addition, in data set [1], the “Dynamic Surface Activity” value was 5; the Dynamic surface tension worked out at 69 mN/m; the “dynamic surface tension / surface activity, in words” value was “least surface active; also recorded: very low surface activity; also recorded: very little surface activity”.
